Assay results taken from patent US20240016777A1, “COMPOUNDS AND METHODS FOR TREATING VIRAL INFECTIONS” (priority 2020, published 2024).
Like-named read-outs stand apart in the source and are kept apart here.

Legend:
Vero E6 cells [1] = tested on: Vero E6 cells
Mpro [2] = target: T1, Mpro (Severe acute respiratory syndrome coronavirus 2 (2019-nCoV) (SARS-CoV-2), UniProt P0DTD1); assay type: biochemical; conditions: jump dilution
SARS-CoV-2 M^pro = SARS-CoV-2 M^pro (Severe acute respiratory syndrome coronavirus 2 (2019-nCoV) (SARS-CoV-2), UniProt P0DTD1); assay: biochemical
SARS-CoV-2 [3] = assay: Vero E6-based SARS-CoV-2 replication assay (immunofluorescence of nucleocapsid protein); assay type: cell-based; conditions: Vero E6 cells
Vero E6 cells [4] = assay: Toxicity in Vero E6 cells / cell culture
Mpro [5] = target: T1, Mpro; assay: Label free mass spectrometry assay of Mpro substrate cleavage; assay type: biochemical; conditions: 50 μM concentration
SARS-CoV-2 [6] = conditions: human ACE2 transgenic mouse, 50-200 mg/kg, crystal form; cited from earlier work
[7] = compound at 17 μM, duplicates, 20 min pre-incubation, read-out: Activity (% enzyme activity by fluorescence relative to initial enzyme activity)
[8] = IC50, compounds evaluated at 0.015-300 μM
[9] = read-out: Activity (% enzyme activity by fluorescence relative to initial enzyme activity), compound at 17 μM, duplicates, 20 min pre-incubation

## O=c1cc(-c2ccc(O)cc2)oc2cc(O)cc(O)c12 [apigenin]
Vero E6 cells [1]
  Toxicity in cells: some toxicity
Mpro [2]
  Reversibility of Mpro inhibition by dilution: completely reversible
SARS-CoV-2 M^pro
  Mpro inhibitory activity (comparison in words): somewhat less potent
SARS-CoV-2 M^pro; IC50 for inhibition of Mpro
  IC50: 17.4 µM
SARS-CoV-2 [3]
  Inhibition of SARS-CoV-2 replication (in words): inhibits viral replication at concentrations at doses that are not toxic
SARS-CoV-2 [3]; 50 μM
  Inhibition of SARS-CoV-2 replication at 50 μM: somewhat better than baicalein

## O=c1c(O)c(-c2cc(O)c(O)c(O)c2)oc2cc(O)cc(O)c12 [myricetin, reference compound]
Mpro [2]
  Reversibility of Mpro inhibition by dilution: resistant to dilution
SARS-CoV-2 [3]
  Inhibition of SARS-CoV-2 replication (in words): somewhat less potently than PGHG, baicalein, or apigenin
SARS-CoV-2 [3]; listed as Myricetin
  Inhibition of SARS-CoV-2 replication (in words): inhibitory activity only at 100 μM

## COc1cc(-c2oc3cc(OC(C)=O)c(OC)c(OC(C)=O)c3c(=O)c2OC)ccc1OC(C)=O [Jaceidin triacetate]
Vero E6 cells [4]
  Toxicity in cells: toxic
Mpro [5]
  Inhibition of Mpro activity (mass spectrometry): completely inhibited
SARS-CoV-2 M^pro
  Mpro inhibitory activity (comparison in words): comparable to or better than the previously described Mpro inhibitors baicalein and myricetin
SARS-CoV-2 M^pro; [7]
  remaining activity at 17 µM: < 10%
SARS-CoV-2 M^pro; read-out: IC50 for inhibition of Mpro
  IC50: 5 to 15 µM

## O=c1cc(-c2ccccc2)oc2cc(O)c(O)c(O)c12 [Baicalein]
SARS-CoV-2 [6]
  Body weight after SARS-CoV-2 infection: prevented reduction in body weight
  Lung injury resulting from SARS-CoV-2 infection: decreased lung injury
SARS-CoV-2 [3]
  Inhibition of SARS-CoV-2 replication (in words): antiviral activity

## O=c1c(-c2c(O)cc(O)c3c(=O)cc(-c4ccc(O)cc4)oc23)c(-c2ccc(O)cc2)oc2cc(O)cc(O)c12 [3,8′-Biapigenin]
Mpro [5]
  Inhibition of Mpro activity (mass spectrometry): completely inhibited
SARS-CoV-2 M^pro; IC50 for inhibition of Mpro
  IC50: 5 to 15 µM

## O=c1cc(-c2ccc(O)c(-c3c(O)cc(O)c4c(=O)cc(-c5ccc(O)cc5)oc34)c2)oc2cc(O)cc(O)c12 [Amentoflavone]
Mpro [2]
  Reversibility of Mpro inhibition by dilution: completely reversible
Mpro [5]
  Inhibition of Mpro activity (mass spectrometry): completely inhibited
SARS-CoV-2 M^pro; [8]
  IC50: 8 µM
SARS-CoV-2 M^pro; IC50 for inhibition of Mpro
  IC50: 5 to 15 µM
SARS-CoV-2 M^pro; [7]
  remaining activity at 17 µM: 10 to 80%

## COc1c(-c2cc(O)c(O)c(CC=C(C)C)c2)oc2c(CC=C(C)C)c(O)cc(O)c2c1=O [5,7,3′,4′-Tetrahydroxy-3-methoxy-8,5′-diprenylflavone]
SARS-CoV-2 M^pro; [9]
  remaining activity at 17 µM: > 80%

## CC(C)=CCCC1(C)C=Cc2c(O)ccc(-c3oc4cc(O)cc(O)c4c(=O)c3CC=C(C)C)c2O1 (stereo not shown) [Sanggenone K]
SARS-CoV-2 M^pro; [9]
  remaining activity at 17 µM: > 80%

## CC(C)=CCc1c(O)cc2c(c1O)C(=O)C[C@@H](c1ccc(O)cc1O)O2 [Cudraflavanone B]
SARS-CoV-2 M^pro; [9]
  remaining activity at 17 µM: > 80%

## COc1c(CC=C(C)C)c(O)cc(O)c1-c1coc2cc(O)ccc2c1=O [Glicoricone]
SARS-CoV-2 M^pro; [9]
  remaining activity at 17 µM: > 80%

## CC(C)=CCc1c(O)cc(O)c2c1OC(c1cc3c(cc1O)O[C@@H](c1ccc(O)cc1)[C@@H]3c1cc(O)cc(O)c1)CC2=O (stereo partly shown) [Sophoraflavanone H]
SARS-CoV-2 M^pro; [9]
  remaining activity at 17 µM: > 80%

## CC(C)=CCc1c(O)c(CC=C(C)C)c2c(c1O)C(=O)C[C@@H](c1ccc(O)cc1O)O2 [Kushenol E]
SARS-CoV-2 M^pro; [9]
  remaining activity at 17 µM: 10 to 80%

## C=C(C)C(O)Cc1c(O)c(CC=C(C)C)c(O)c2c(=O)c(-c3ccc(O)cc3)coc12 (stereo not shown) [Erysenegalensein E]
SARS-CoV-2 M^pro; [9]
  remaining activity at 17 µM: > 80%

## CC(C)=CCc1c(O)cc2c(c1O)C(=O)[C@@]1(O)c3ccc(O)cc3O[C@H]1O2 [Lupinol C]
SARS-CoV-2 M^pro; [9]
  remaining activity at 17 µM: > 80%

## COc1c(O)cc2oc(-c3ccc(O)c(O)c3)cc(=O)c2c1O [6-methoxyluteolin]
SARS-CoV-2 M^pro; [8]
  IC50: 4 µM
SARS-CoV-2 M^pro; [9]
  remaining activity at 17 µM: 10 to 80%
